Results reported in PMC6005030, “The c-Abl inhibitor, Radotinib HCl, is neuroprotective in a preclinical Parkinson’s disease mouse model” (Human Molecular Genetics, 2018).
Counter-ions that a name gives are not always drawn.

Experiments:
[1] = test system: α-synuclein PFF mouse model of sporadic PD; experiment: α-synuclein PFF mouse model: LB/LN-like pathology in vivo; parameters: species or system C57BL/6 mice; conditions: for Accumulation of pS129-α-synuclein in SNpc TH-positive neurons: oral once a day for 5 months, 180 days after PFF
Protocol: For Triton X-100 (TX, Sigma-Aldrich) soluble and insoluble fraction, cells were prepared with sequential lysis buffer. Samples were homogenized in the followed TX-soluble buffer (50 mM Tris (pH 8.0), 150 mM NaCl, 1% TX with phosphatase inhibitor cocktail and protease inhibitor cocktail) and then were centrifuged and collected the soluble supernatant. The insoluble pellet was resuspended in TX-insoluble buffer (50 mM Tris (pH 8.0), 150 mM NaCl, 1% TX, 2% SDS with phosphatase inhibitor cocktail and protease inhibitor cocktail) and then was sonicated and centrifuged at 22 000 × g for 30 min.
Protein concentrations were determined using the BCA assay (Pierce, Rockford, IL, USA). 2X Laemmli buffer (Bio-Rad) was utilized to dilute the lysates. […] Membrane was blocked with TTBS (150 mM NaCl, 10 mM Tris–HCl (pH 7.4), 0.05% Tween 20) containing 5% skim milk for 30–60 min and incubated at 4°C overnight with primary antibodies; mouse anti-α-synuclein (610787; BD Transduction Laboratories), rabbit anti-pY245 c-Abl (2861; Cell Signaling Technology), mouse anti-c-Abl (554148; BD Transduction Laboratories), rabbit monoclonal anti-pS129 α-synuclein (ab168381; Abcam), rabbit polyclonal anti-phospho-p38 MAPK (Thr180/Tyr182) (9211; Cell Signaling Technology), rabbit polyclonal anti-p38 MAPK (A11340; Abclonal Technology) followed by HRP-conjugated rabbit or mouse secondary antibodies (1: 5000, GE Healthcare) for 1 h at room temperature. Rabbit polyclonal anti-pY39-α-synuclein antibody was generated as described previously ([13]). Protein bands were detected using chemiluminescence detection system onto X-ray film. The membranes were reprobed with HRP-conjugated β-actin antibody (1: 20 000, Sigma-Aldrich).
(§1) Primary mouse cortical neurons were plated onto poly-D-lysine coated coverslips. 4% paraformaldehyde was used to fix the neurons, followed by blocking in a solution with 5% normal donkey serum (Jackson ImmunoResearch), 2% BSA (Sigma-Aldrich) and 0.1% TX (Sigma-Aldrich) for 30–60 min at room temperature. Floating brain tissue sections were blocked with 10% donkey serum (Jackson Immunoreserach) in PBS plus 0.2% TX for 30 min at room temperature.
Primary antibodies, anti-pS129-α-synuclein (ab168381; Abcam), anti-TH antibody (Novus Biologicals) and anti-MAP2 (MAB3418; Millipore) were incubated at 4°C overnight. The samples were washed with PBS three times, followed by 1 h of incubation with a mixture of FITC-conjugated (Jackson ImmunoReserach) and Cy3-conjugated (Jackson ImmunoReserach) secondary antibodies at room temperature. […]
(§2) For stereotaxic injection of α-synuclein PFF, 2 months old mice were anesthetized with the mixture of xylazene and ketamine. […] The head skin was closed by suturing and wound healing and recovery were monitored following surgery. […]

[2] = test system: α-synuclein PFF mouse model of sporadic PD; experiment: α-synuclein PFF mouse model: dopaminergic neurodegeneration and striatal TH fiber density; assay type: in vivo, C57BL/6 mice; conditions: for SNpc TH- and Nissl-positive dopaminergic neurons (stereologic counting): 180 days after PFF
Protocol: (§3) For stereotaxic injection of α-synuclein PFF, 2 months old mice were anesthetized with the mixture of xylazene and ketamine. An injection cannula (26.5 gauge) was applied stereotaxically into the striatum (anteroposterior, […]; dorsoventral, 2.6 mm) unilaterally into the right hemisphere. The infusion of 2 μl α-synuclein PFF (2.5 μg/μl in PBS) or PBS was performed at a rate of 0.4 μl per min. The head skin was closed by suturing and wound healing and recovery were monitored following surgery. For stereological analysis, animals were perfused and fixed intracardially with ice-cold PBS followed by 4% paraformaldehyde at 6 months after striatal α-synuclein PFF injections. The brain was removed and processed for immunohistochemistry or immunofluorescence. Behavioral test was performed at 6 months after the unilateral striatal α-synuclein PFF injections. Treatment of Radotinib HCl was accomplished after 1 month of striatal α-synuclein PFF injections, once a day.
The perfusion was performed with ice-cold PBS and fixed by 4% paraformaldehyde after deep anesthesia. Whole brains were collected, and fixed in the 4% paraformaldehyde, and incubated in cryoprotection solution (30% sucrose/PBS, pH 7.4). Brains were frozen in an optimal cutting temperature (OCT) solution and serial coronal sections (30 µm sections) were cut with a microtome. […] TH-positive and Nissl-positive dopaminergic neurons from the SNpc region were counted through optical fractionators, the unbiased method for cell counting. […] The total number of TH-stained neurons and Nissl counts was analyzed as previously described ([27],[43]). Fiber density in the striatum was analyzed by optical density (OD) measurement. […] The number of pS129-α-synuclein positive and Nissl positive in the SNpc region were measured with ImageJ software and field counting. […] The number and immunoreactivities of microglia and astrocyte in the SNpc region were measured with ImageJ software.

[3] = test system: α-synuclein PFF mouse model of sporadic PD; experiment: α-synuclein PFF mouse model: neuroinflammation (Iba-1, GFAP) in SNpc; assay type: in vivo, C57BL/6 mice
Protocol: as §3
The perfusion was performed with ice-cold PBS and fixed by 4% paraformaldehyde after deep anesthesia. Whole brains were collected, and fixed in the 4% paraformaldehyde, and incubated in cryoprotection solution (30% sucrose/PBS, pH 7.4). Brains were frozen in an optimal cutting temperature (OCT) solution and serial coronal sections (30 µm sections) were cut with a microtome. Free-floating sections were blocked with 5% goat or horse serum/PBS plus 0.2% Triton X-100 and incubated with anti-TH antibody (Novus Biologicals) or anti-pS129-α-synuclein followed by incubation with biotin-conjugated anti-rabbit antibody or anti-mouse antibody (Vector Labs). After washing three times, ABC reagents (Vector Labs) were added and sections were developed using SigmaFast 3, 3′-Diaminobenzidine (DAB) Peroxidase Substrate (Sigma-Aldrich). Sections were counterstained with Nissl (0.09% thionin). TH-positive and Nissl-positive dopaminergic neurons from the SNpc region were counted through optical fractionators, the unbiased method for cell counting. This method was carried out by using a computer-assisted image analysis system consisting of an Axiophot photomicroscope (Carl Zeiss Vision) equipped with a computer-controlled motorized stage (Ludl Electronics), a Hitachi HV C20 camera and Stereo Investigator software (MicroBright-Field). The total number of TH-stained neurons and Nissl counts was analyzed as previously described ([27],[43]). Fiber density in the striatum was analyzed by optical density (OD) measurement. […] The number of pS129-α-synuclein positive and Nissl positive in the SNpc region were measured with ImageJ software and field counting. […] The number and immunoreactivities of microglia and astrocyte in the SNpc region were measured with ImageJ software.

[4] = test system: α-synuclein PFF mouse model of sporadic PD; experiment: α-synuclein PFF mouse model: behavioral tests (pole, grip strength, amphetamine rotation); assay type: in vivo, C57BL/6 mice
Protocol: as §3
Before the actual test, mice were trained for three consecutive days and each training session consists of three test trials. Briefly, the mice were placed on the top of the pole (3 in. from the top of the pole) and then total time to reach the bottom of the pole was recorded. For the test, mice went through three sessions and the total time was recorded. Results were recorded by turn down, climb down, and total time (in seconds).
Neuromuscular strength was measured by maximum holding force generated by the mice. Mice were allowed to grasp a metal grid with their forelimbs. The tail was gently pulled and the maximum holding force recorded by the force transducer (Biosed, USA) when the mice released their grasp on the grid.
The amphetamine treatment (5 mg/kg, Sigma-Aldrich) was intraperitoneally administered after 6 months of α-synuclein PFF injections with or without Radotinib HCl treatment. Mice were placed in individual white bowls with a diameter of 20 cm and allowed to habituate to their environment for 10 min before turns contralateral and ipsilateral to the lesion were recorded over 20 min. Full-body ipsilateral rotations (clockwise) per 1 min session were recorded for each mouse from the video recordings.

BCR-Abl = conditions: cited from earlier work
c-Abl [5] = experiment: α-synuclein PFF-induced c-Abl activation in primary cortical neurons (Western blot); assay type: cell-based, C57BL/6 mice; conditions: 1 μM
Protocol: (§4) C57BL/6 mice were obtained from the Charles River (Wilmington, MA). Primary cortical neurons were prepared from E15.5 pups and cultured in Neurobasal media supplemented with B-27, 0.5 mM L-glutamine, penicillin and streptomycin (Invitrogen, Grand Island, NY) on 24-well tissue culture plates coated with poly-D-lysine. Radotinib HCl was added to neurons for 30 min and α-synuclein PFF (final concentration 1 μg/ml) was further incubated as described (10 or 14 days) followed by Immunocytochemistry and biochemical or toxicity assays. Radotinib HCl was added to neurons three times a week before the assays.
After washing two times with PBS, primary cortical neurons were harvested and then lysed with RIPA lysis buffer (Thermo Scientific) with phosphatase inhibitor cocktail (Sigma-Aldrich) and complete protease inhibitor mixture (Roche) for 30 min in ice. The lysate is then homogenized and centrifuged at 22 000 × g for 30 min.
(§5) Protein concentrations were determined using the BCA assay (Pierce, Rockford, IL, USA). 2X Laemmli buffer (Bio-Rad) was utilized to dilute the lysates. […] Protein bands were detected using chemiluminescence detection system onto X-ray film. […]

primary cortical neurons [6] = experiment: α-synuclein PFF-induced LB/LN-like pathology in primary cortical neurons (pS129-α-synuclein immunostaining); assay type: cell-based, C57BL/6 mice; conditions: 50 nM, 250 nM and 1 μM, dose-dependent; 10 days
Protocol: as §4, §1
Primary antibodies, anti-pS129-α-synuclein (ab168381; Abcam), anti-TH antibody (Novus Biologicals) and anti-MAP2 (MAB3418; Millipore) were incubated at 4°C overnight. […]

primary cortical neurons [7] = experiment: Oxygen consumption rate (Seahorse XF24) in α-synuclein PFF-treated primary cortical neurons; assay type: cell-based, mouse; conditions: 1 μM, 14 days
Protocol: OCR was determined using the Seahorse XF24 Extracellular Flux Analyzer and the XF Cell Mito Stress Test Kit according to the manufacturer’s instruction (Agilent Technologies, Santa Clara, CA) ([42]). Briefly, primary mouse cortical neurons were plated in a XF24 cell culture microplate coated with poly-D-lysine. Cells were washed once with XF Assay Media, pre-incubated in a non-CO2 incubator at 37°C for 30 min in XF Assay Media. For the assay, cells were treated sequentially with 1 μM Oligomycin, 2 μM carbonyl cyanide-p-trifluoromethoxyphenylhydrazone (FCCP), and 1 μM Rotenone plus 1 μM Antimycin A. Oligomycin inhibits ATP synthase (complex V) to measure ATP production and proton leak. FCCP uncouples oxygen consumption from ATP production enables to measure maximal respiration. Rotenone and antimycin A inhibit complexes I and III and shut down mitochondrial respiration. Basal respiration was calculated using the mean of the OCR measurements before oligomycin injection minus the mean of the OCR measurements after rotenone and antimycin A injection, and maximal respiration was defined as the difference between the mean of the OCR measurements after FCCP injection and the mean of the OCR measurements after rotenone and antimycin A injection.

primary cortical neurons [8] = experiment: α-synuclein PFF-induced neuronal toxicity (TUNEL, Alamar Blue); assay type: cell-based, C57BL/6 mice; conditions: α-synuclein PFF 14 days; 50, 250, 1000 nM
Protocol: as §4
Cell viability was tested via two methods; In Situ Cell Death Detection Kit (Roche) for TUNEL assay and Alamar Blue assay (Thermo Fisher). […] Cell death was assessed through the TUNEL assay, according to the manufacturer’s protocol. For Alamar Blue assay, after adding Alamar Blue solution for 4 h, cell viability was determined by fluorescence at excitation wavelength 570 nm and emission wavelength 585 nm.

c-Abl [9] = experiment: α-synuclein PFF mouse model: c-Abl activation and p38 MAPK phosphorylation in brain (Western blot); assay type: in vivo, C57BL/6 mice
Protocol: The mouse brain tissues were homogenized and prepared in lysis buffer (10 mM Tris–HCL, pH 7.4, 150 mM NaCl, 5 mM EDTA, 0.5% Nonidet P-40, 10 mM Na-β-glycerophosphate, phosphatase inhibitor cocktail (Sigma-Aldrich) and complete protease inhibitor mixture (Roche)), using a Diax 900 homogenizer (Sigma-Aldrich). After homogenization, samples were rotated at 4°C for 30 min for complete lysis, the homogenate was centrifuged at 22 000 × g for 30 min and the supernatants were collected.
as §5, §2

[10] = mid (10 mg/kg) and high (30 mg/kg) doses oral
[11] = low (3), mid (10) and high (30 mg/kg) doses oral, 6 months after PFF

Cc1cn(-c2cc(NC(=O)c3ccc(C)c(Nc4nccc(-c5cccnc5)n4)c3)cc(C(F)(F)F)c2)cn1 [Nilotinib]
Reduction of TX-insoluble α-synuclein aggregate species, pS129- and pY39-α-synuclein compared to Radotinib HCl ([1]; high dose (30 mg/kg) oral): less effect
Accumulation of pS129-α-synuclein in SNpc TH-positive neurons ([1]; high dose (30 mg/kg)): significantly decreased
SNpc TH- and Nissl-positive dopaminergic neurons (stereologic counting) ([2]; high dose (30 mg/kg) oral): dramatic preservation
Astrocyte activation (GFAP) in SNpc ([3]; high dose (30 mg/kg) oral): significantly decreased
Iba-1 immunoreactivity and microglial density in SNpc ([3]; high dose (30 mg/kg) oral): significantly reduced
Behavioral deficits in the α-synuclein PFF mouse model ([4]; high dose (30 mg/kg) oral): protected against the behavioral deficits

Cc1cn(-c2cc(NC(=O)c3ccc(C)c(Nc4nccc(-c5cnccn5)n4)c3)cc(C(F)(F)F)c2)cn1 [Radotinib HCl]
c-Abl activation induced by α-synuclein PFF (pY245-c-Abl) (c-Abl [5]; α-synuclein PFF 1 μg/ml, primary cortical neurons): significantly decreased
Level of pY39-α-synuclein (c-Abl [5]; α-synuclein PFF-treated primary cortical neurons): significantly decreased
LB/LN-like pathology induced by α-synuclein PFF (pS129-α-synuclein immunostaining) (primary cortical neurons [6]): significantly decreased
Basal respiration rate (BRR) (primary cortical neurons [7]): markedly restored
Maximal respiration rate (MRR) (primary cortical neurons [7]): markedly restored
α-synuclein PFF neuronal toxicity, Alamar blue assay (primary cortical neurons [8]): significantly attenuated
α-synuclein PFF neuronal toxicity, TUNEL staining (primary cortical neurons [8]): significantly attenuated
TX-insoluble α-synuclein aggregates species, pS129-α-synuclein and pY39-α-synuclein levels in ventral midbrain ([1]; 3, 10, 30 mg/kg oral, dose-dependent): significantly reduced
Accumulation of pS129-α-synuclein in SNpc TH-positive neurons ([1]; mid (10 mg/kg) and high (30 mg/kg) doses): significantly decreased
α-synuclein PFF-induced reduction in striatal TH-fiber density ([2]; low (3), mid (10) and high (30 mg/kg) doses oral): significantly rescued
SNpc TH- and Nissl-positive dopaminergic neurons (stereologic counting) [2, 10]: dramatic preservation
Astrocyte activation (GFAP) in SNpc [3, 10]: significantly decreased
Iba-1 immunoreactivity and microglial density in SNpc [3, 10]: significantly reduced
Grip strength (neuromuscular strength reduced by α-synuclein PFF) [4, 11]: restored
Pole test latency induced by α-synuclein PFF [4, 11]: significantly restored
Amphetamine-induced full body ipsilateral rotations ([4]; mid (10 mg/kg) and high (30 mg/kg) doses oral, amphetamine 5 mg/kg I.P.): reduced
Increase in phosphorylation of c-Abl (Y245) and of p38 MAPK in α-synuclein PFF-injected mice (c-Abl [9]; Supplementary Fig. S1): reversed
c-Abl activation, TX-insoluble α-synuclein aggregates, phosphorylation of Y39-α-synuclein and p38 MAPK, compared to Nilotinib-treated mice (c-Abl [9]; α-synuclein PFF-injected mice): substantially decreased
IC50 (BCR-Abl): 34 nM
